Where two headings read alike, the source gives them in different places.
What was measured:
[1] = test system: A549 cells; test: Cell proliferation assay (CellTiter-Glo), K-Ras G12S cells; assay type: cell-based; settings: for IC50: Homo sapiens; for ratio of IC50 against a G12D cell line to IC50 against a G12S cell line: K-Ras G12D cell line such as GP2D relative to K-Ras G12S cell line such as A549, greater than 1, 2, 3, 4, 5, 10, 15 or even greater, 8640 min
Summary of the method: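 A549 cells (K-Ras G12S) in RPMI-1640 with 10% FBS, seeded in standard or ultra-low-attachment plates and dosed next day with a 10-point 3-fold series. Viability read about 6 days later by CellTiter-Glo luminescence. IC50 from four-parameter fit.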

[2] = target: T1, K-Ras G12S (Homo sapiens, UniProt P01116, G12S); test: HTRF assay of the K-Ras / SOS1 interaction; assay type: biochemical; settings: IC50 (against K-Ras G12D) to IC50 (against K-Ras G12S)
T1 construct: made in house; host or cells: E. coli (e.g., BL21 (DE3))
T1 sequence (P01116 1-188 isoform P01116-2 G12S): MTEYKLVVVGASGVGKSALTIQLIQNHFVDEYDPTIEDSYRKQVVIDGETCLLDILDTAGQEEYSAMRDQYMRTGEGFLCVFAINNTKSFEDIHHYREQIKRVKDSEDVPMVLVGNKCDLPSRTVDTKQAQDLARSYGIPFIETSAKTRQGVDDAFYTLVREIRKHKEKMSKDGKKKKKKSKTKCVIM
Summary of the method: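 Compounds (duplicates, 10 µM to 0.01 µM) were incubated ≥~10 min with Eu-labelled GST-K-Ras G12S and XL665-labelled His-hSOS1 in HEPES pH 7.4 buffer containing NaCl, DTT, BSA and Igepal. Disruption measured as HTRF emission ratio 665/620 nm, fitted to IC50.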

[3] = A549, A549 cells (K-Ras G12S), bin ≤ 500 nM, read-out: Inhibition of A549 Cells (IC50)
[4] = A549, A549 cells (K-Ras G12S), bin 500 nM to 5 µM, read-out: Inhibition of A549 Cells (IC50)
[5] = A549, read-out: Inhibition of A549 Cells (IC50)

| Compound | IC50 [1, 3] | ratio of IC50 against a G12D cell line to IC50 against a G12S cell line [1] | Ratio of IC50 KRAS G12D vs. IC50 KRAS G12S [2] | IC50 [1, 4] | IC50 [1, 5] |
| --- | --- | --- | --- | --- | --- |
| Cc1ncn(C(=O)N2CC3(CCCN(c4nc(OC[C@@]56CCCN5C[C@H](F)C6)nc5c(F)c(-c6ccc(F)c7sc(N)c(C#N)c67)c(Cl)cc45)C3)C2)n1 [Compound A102, 2-amino-4-(6-chloro-8-fluoro-2-(((2R,7aS)-2-fluorotetrahydro-1H-pyrrolizin-7 a(5H)-yl)methoxy)-4-(2-(3-methyl-1H-1,2,4-triazole-1-carbonyl)-2,6-diazaspiro[3.5]nonan-6-yl)quinazolin-7-yl)-7-fluorobenzo[b]thiophene-3-carbonitrile] | ≤ 500 nM | greater than 1 | A (A: indicates that the ratio of IC50 against KrasG12D vs. IC50 against KrasG12S is 1-fold or greater) |  |  |
| N#CCc1ncn(C(=O)N2CC3(C2)CN(c2nc(OC[C@@]45CCCN4C[C@H](F)C5)nc4c(F)c(-c5ccc(F)c6sc(N)c(C#N)c56)c(Cl)cc24)CCO3)n1 [Compound A110, 2-amino-4-(6-chloro-4-(2-(3-(cyanomethyl)-1H-1,2,4-triazole-1-carbonyl)-5-oxa-2,8-diazaspiro[3.5]nonan-8-yl)-8-fluoro-2-(((2R,7aS)-2-fluorotetrahydro-1H-pyrrolizin-7a(5H)-yl)methoxy)quinazolin-7-yl)-7-fluorobenzo[b]thiophene-3-carbonitrile] | ≤ 500 nM | greater than 1 | A (A: indicates that the ratio of IC50 against KrasG12D vs. IC50 against KrasG12S is 1-fold or greater) |  |  |
| COCCN1CCC(Oc2nc(N3CCCCC4(CN(C(=O)n5cncn5)C4)C3)c3cc(Cl)c(-c4ccc(F)c5sc(N)c(C#N)c45)c(F)c3n2)CC1 [Compound A119, 4-(4-(2-(1H-1,2,4-triazole-1-carbonyl)-2,6-diazaspiro[3.6]decan-6-yl)-6-chloro-8-fluoro-2-((1-(2-methoxyethyl)piperidin-4-yl)oxy)quinazolin-7-yl)-2-amino-7-fluorobenzo[b]thiophene-3-carbonitrile] |  |  | A (A: indicates that the ratio of IC50 against KrasG12D vs. IC50 against KrasG12S is 1-fold or greater) | 500 to 5000 nM |  |
| N#Cc1cn(C(=O)N2C3CCC2CN(c2nc(OC[C@@]45CCCN4C[C@H](F)C5)nc4c(F)c(-c5ccc(F)c6sc(N)nc56)c(Cl)cc24)C3)cn1 [Compound A123, 1-(3-(7-(2-amino-7-fluorobenzo[d]thiazol-4-yl)-6-chloro-8-fluoro-2-(((2R,7aS)-2-fluorotetrahydro-1H-pyrrolizin-7a(5H)-yl)methoxy)quinazolin-4-yl)-3,8-diazabicyclo[3.2. 1]octane-8-carbonyl)-1H-imidazole-4-carbonitrile] |  |  | A (A: indicates that the ratio of IC50 against KrasG12D vs. IC50 against KrasG12S is 1-fold or greater) |  | 500 to 5000 nM |
| N#Cc1c(N)sc2c(F)ccc(-c3c(Cl)cc4c(N5CCCC6(CN(C(=O)n7cncn7)C6)C5)nc(OC[C@@]56CCCN5C[C@H](F)C6)nc4c3F)c12 [Compound A129, 4-(4-(2-(1H-1,2,4-triazole-1-carbonyl)-2,6-diazaspiro[3.5]nonan-6-yl)-6-chloro-8-fluoro-2-(((2R,7aS)-2-fluorotetrahydro-1H-pyrrolizin-7a(5H)-yl)methoxy)quinazolin-7-yl)-2-amino-7-fluorobenzo[b]thiophene-3-carbonitrile] | ≤ 500 nM |  | A (A: indicates that the ratio of IC50 against KrasG12D vs. IC50 against KrasG12S is 1-fold or greater) |  |  |
| N#Cc1c(N)sc2c(F)ccc(-c3ncc4c(N5CCCC6(CN(C(=O)n7cncn7)C6)C5)nc(OC[C@@]56CCCN5C[C@H](F)C6)nc4c3F)c12 [Compound A134, 4-(4-(2-(1H-1,2,4-triazole-1-carbonyl)-2,6-diazaspiro[3.5]nonan-6-yl)-8-fluoro-2-(((2R,7aS)-2-fluorotetrahydro-1H-pyrrolizin-7a(5H)-yl)methoxy)pyrido[4,3-d]pyrimidin-7-yl)-2-amino-7-fluorobenzo[b]thiophene-3-carbonitrile] |  |  | A (A: indicates that the ratio of IC50 against KrasG12D vs. IC50 against KrasG12S is 1-fold or greater) | 500 to 5000 nM |  |
| Nc1nc2c(-c3c(Cl)cc4c(N5CCCC6(CN(C(=O)n7cncn7)C6)C5)nc(OC[C@@]56CCCN5C[C@H](F)C6)nc4c3F)ccc(F)c2s1 [Compound A136, (6-(7-(2-amino-7-fluorobenzo[d]thiazol-4-yl)-6-chloro-8-fluoro-2-(((2R,7aS)-2-fluorotetrahydro-1H-pyrrolizin-7a(5H)-yl)methoxy)quinazolin-4-yl)-2,6-diazaspiro[3.5]nonan-2-yl)(1H-1,2,4-triazol-1-yl)methanone] |  | greater than 1 | A (A: indicates that the ratio of IC50 against KrasG12D vs. IC50 against KrasG12S is 1-fold or greater) | 500 to 5000 nM |  |
| CN1CCC[C@H]1COc1nc(N2CCOC3(CN(C(=O)n4cncn4)C3)C2)c2cc(Cl)c(-c3ccc(F)c4sc(N)c(C#N)c34)c(F)c2n1 [Compound A137, 4-(4-(2-(1H-1,2,4-triazole-1-carbonyl)-5-oxa-2,8-diazaspiro[3.5]nonan-8-yl)-6-chloro-8-fluoro-2-(((S)-1-methylpyrrolidin-2-yl)methoxy)quinazolin-7-yl)-2-amino-7-fluorobenzo[b]thiophene-3-carbonitrile] | ≤ 500 nM |  | A (A: indicates that the ratio of IC50 against KrasG12D vs. IC50 against KrasG12S is 1-fold or greater) |  |  |
| Nc1nc2c(-c3c(Cl)cc4c(N5CCN(C(=O)n6cncn6)CC(F)(F)C5)nc(OC[C@@]56CCCN5C[C@H](F)C6)nc4c3F)ccc(F)c2s1 [Compound A141, (4-(7-(2-amino-7-fluorobenzo[d]thiazol-4-yl)-6-chloro-8-fluoro-2-(((2R,7aS)-2-fluorotetrahydro-1H-pyrrolizin-7a(5H)-yl)methoxy)quinazolin-4-yl)-6,6-difluoro-1,4-diazepan-1-yl)(1H-1,2,4-triazol-1-yl)methanone] |  |  | A (A: indicates that the ratio of IC50 against KrasG12D vs. IC50 against KrasG12S is 1-fold or greater) | 500 to 5000 nM |  |
| Nc1nc2c(-c3c(Cl)cc4c(N5CCN(C(=O)n6cncn6)CC5)nc(OC[C@@]56CCCN5C[C@H](F)C6)nc4c3F)ccc(F)c2s1 [Compound A146, (4-(7-(2-amino-7-fluorobenzo[d]thiazol-4-yl)-6-chloro-8-fluoro-2-(((2R,7aS)-2-fluorotetrahydro-1H-pyrrolizin-7a(5H)-yl)methoxy)quinazolin-4-yl)piperazin-1-yl)(1H-1,2,4-triazol-1-yl)methanone] |  |  | A (A: indicates that the ratio of IC50 against KrasG12D vs. IC50 against KrasG12S is 1-fold or greater) | 500 to 5000 nM |  |
| Cc1ncn(C(=O)N2CC3(C2)CN(c2nc(OC[C@@]45CCCN4C[C@H](F)C5)nc4c(F)c(-c5ccc(F)c6sc(N)c(C#N)c56)c(Cl)cc24)CCO3)n1 [Compound A148, 2-amino-4-(6-chloro-8-fluoro-2-(((2R,7aS)-2-fluorotetrahydro-1H-pyrrolizin-7 a(5H)-yl)methoxy)-4-(2-(3-methyl-1H-1,2,4-triazole-1-carbonyl)-5-oxa-2,8-diazaspiro[3.5]nonan-8-yl)quinazolin-7-yl)-7-fluorobenzo[b]thiophene-3-carbonitrile] | ≤ 500 nM |  | A (A: indicates that the ratio of IC50 against KrasG12D vs. IC50 against KrasG12S is 1-fold or greater) |  |  |
| N#Cc1c(N)sc2c(F)ccc(-c3c(Cl)cc4c(N5CCC6C5CCCN6C(=O)n5cncn5)nc(OC[C@@]56CCCN5C[C@H](F)C6)nc4c3F)c12 (stereo partly drawn) [Compound A152, 4-(4-(4-(1H-1,2,4-triazole-1-carbonyl)octahydro-1H-pyrrolo[3,2-b]pyridin-1-yl)-6-chloro-8-fluoro-2-(((2R,7aS)-2-fluorotetrahydro-1H-pyrrolizin-7a(5H)-yl)methoxy)quinazolin-7-yl)-2-amino-7-fluorobenzo[b]thiophene-3-carbonitrile] | ≤ 500 nM | greater than 1 | A (A: indicates that the ratio of IC50 against KrasG12D vs. IC50 against KrasG12S is 1-fold or greater) |  |  |
| N#Cc1nccn1C(=O)N1C2CCC1CN(c1nc(OC[C@@]34CCCN3C[C@H](F)C4)nc3c(F)c(-c4ccc(F)c5sc(N)nc45)c(Cl)cc13)C2 [Compound A170, 1-(3-(7-(2-amino-7-fluorobenzo[d]thiazol-4-yl)-6-chloro-8-fluoro-2-(((2R,7aS)-2-fluorotetrahydro-1H-pyrrolizin-7a(5H)-yl)methoxy)quinazolin-4-yl)-3,8-diazabicyclo[3.2. 1]octane-8-carbonyl)-1H-imidazole-2-carbonitrile] |  |  | A (A: indicates that the ratio of IC50 against KrasG12D vs. IC50 against KrasG12S is 1-fold or greater) |  | 500 to 5000 nM |
